One test concerns Enterococcus faecium 220. As to the kind of experiment: MIC in DMSal medium (Example 17). It is filed as cell-based. The following applies: Enterococcus faecium, 220.
The test system of test [1] is S. aureus OCC 102. Nature of the test: growth on nutrient agar, mixed culture with K. pneumoniae (Example 6). It counts as cell-based, Staphylococcus aureus. The following applies: S. aureus in mixed culture with K. pneumoniae. The text has this:
Example 1 was repeated, this time using a mixed culture of K. pneumoniae CMCC 3077 and S. aureus OCC 102. The results for growth in the presence of AEP or alaphosphin are shown in FIGS. 7 and 8 respectively: empty columns represent growth of S. aureus, the shaded columns represent growth of K. pneumoniae. […] Accordingly, there is a considerable alaphosphin concentration range over which S. aureus will readily grow whilst K. pneumoniae will be inhibited. Even if K. pneumoniae cells lyse due to the toxic effect of AEP released intracellularly, the AEP is not toxic for S. aureus at the concentrations involved.

In test [2] the test system is Enterococcus faecalis 501. As to the kind of experiment: MIC in DMSal medium (Example 17). It is filed as cell-based. Particulars: Enterococcus faecalis, 501.
In test [3] the test system is Salmonella typhimurium OCC 722. Nature of the test: Bioscreen growth, comparison with conventional selective agents (Example 12). It counts as cell-based. The following applies: 60 μg/ml alaphosphin, Lab-Lemco broth + phosphate buffer pH 6.0. Here is the method: The following is an example to illustrate the beneficial lower toxic properties of the new selective agents towards the target microorganism, in this case Salmonella. Two selective agents, cefsulodin and novobiocin, as used conventionally in Salmonella isolation from foods (Humphrey and Whitehead, 1992 British Poultry Science 33, 761-768) were compared with alaphosphin. All were dissolved in deionised water, filter sterilised, and an amount of the solution added to either autoclaved Lab-Lemco broth+phosphate buffer (20 g/l; pH 6.0; ala-AEP) or Buffered Peptone Water (pH 6.8; cefsulodin and novobiocin) to give final concentrations of 66, 16.5 and 11 μg/ml respectively. [The different pH values reflect the different pH optima of the selective agents (ala-AEP was also subsequently used in BPW at pH 6.8 and similar results obtained)]. Volumes (300 μl) were then pipetted into the wells of Bioscreen microtitre plates and 30 μl quantities of 1 in 10,000 dilutions of overnight cultures of E. coli OCC 2129 and Salmonella typhimurium OCC 722, added. Plates were then covered, incubated at 37° C., and the opacity of the organism suspensions measured using a Bioscreen instrument.
Typical results are shown in FIGS. 17-19, which are graphs of optical density against time for S. typhimurium (circles) and E. coli (squares) in the presence (empty symbols) or absence (filled symbols) of 15 μg/ml cefsulodin (FIG. 17), 10 μg/ml novobiocin (FIG. 18) or 60 μg/ml alaphosphin (FIG. 19).

The test system of the next test is S. aureus (MRSA) 934. As to the kind of experiment: MIC in DMSal medium (Example 17). It counts as cell-based. Particulars: Staphylococcus aureus, MRSA. The text has this: (§1) Isoleucyl-AEP and sarcosyl-alanyl-AEP were compared to ala-AEP (all in DMSal medium) for the ability to selectively recover two clinically important pathogenic bacteria: Salmonella and Staphylococcus aureus.

Another test relates to S. aureus 198. Nature of the test: MIC in DMSal medium (Example 17). It counts as cell-based. Particulars: Staphylococcus aureus, 198.
From the text: as §1

For test [4], the system named is Enterococcus faecalis 581. Nature of the test: MIC in DMSal medium (Example 17). The following applies: Enterococcus faecalis, 581. It counts as cell-based.
From the text: as §1

A further test concerns S. aureus ss aureus 2355. As to the kind of experiment: MIC in DMSal medium (Example 17). It is filed as cell-based. Particulars: Staphylococcus aureus.
From the text: as §1

The test system of a further test is K. pneumoniae CMCC 3077. As to the kind of experiment: growth on nutrient agar, mixed culture with B. subtilis (Example 8). It is filed as cell-based, Klebsiella pneumoniae. Particulars: K. pneumoniae in mixed culture with B. subtilis, nutrient agar. An excerpt: Example 6 was repeated, this time using a mixed culture of B. subtilis OCC 214 and K. pneumoniae CMCC 3077, in the presence of AEP or alaphosphin. The empty columns show the growth of B. subtilis, the shaded columns denote growth of K. pneumoniae.

A further test has as its system Salmonella virchow 703. As to the kind of experiment: MIC / growth in DMSal (Example 16). It is filed as cell-based. Particulars: Salmonella virchow 703, DMSal, 1.5 μg/ml. The method, then: (§2) The experiments were conducted as follows: nutrient agar medium was autoclaved and, on cooling (but prior to setting) filter-sterilised alaphosphin or AEP were incorporated at final concentrations of 1 mM, 2 mM, 5 mM and 10 mM, and the medium used to pour plates. Control plates were prepared using nutrient agar without alaphosphin or AEP. A single colony of the organism under test was inoculated in 10 ml of nutrient broth and incubated (without agitation) at 37° C. for 4 hours.
(§3) Trp-AEP was compared to alaphosphin (Ala-AEP) for selective growth of Salmonella strains on DMSal agar.

The subject of test [5] is Salmonella enteriditis 723. As to the kind of experiment: MIC / growth in DMSal (Example 16). It is filed as cell-based. Particulars: Salmonella enteriditis 723, DMSal, 1.5 μg/ml. The method, then:
as §2, §3

Another test has as its system Salmonella arizonae 1200. Nature of the test: MIC / growth in DMSal (Example 16). It counts as cell-based. The following applies: Salmonella arizonae 1200, DMSal, 1.5 μg/ml. Here is the method: as §2, §3
The subject of test [6] is Salmonella typhimurium 722. As to the kind of experiment: MIC / growth in DMSal (Example 16). It is filed as cell-based. Particulars: Salmonella typhimurium 722, DMSal, 1.5 μg/ml. The method, then:
as §2, §3

The next test deals with Citrobacter freundii 370. Nature of the test: MIC / growth in DMSal (Example 16). Particulars: Citrobacter freundii 370, DMSal, 1.5 μg/ml. It counts as cell-based. The method, then:
as §2, §3

The subject of another test is Klebsiella aerogenes 323. As to the kind of experiment: MIC / growth in DMSal (Example 16). It is filed as cell-based. Particulars: Klebsiella aerogenes 323, DMSal, 1.5 μg/ml. Here is the method: as §2, §3
The test system of test [7] is Klebsiella pneumoniae 411. Nature of the test: MIC / growth in DMSal (Example 16). It counts as cell-based. Particulars: Klebsiella pneumoniae 411, DMSal, 1.5 μg/ml. Here is the method:
as §2, §3

In a further test the test system is Serratia marcescens 217. As to the kind of experiment: MIC / growth in DMSal (Example 16). It counts as cell-based. The following applies: Serratia marcescens 217, DMSal, 1.5 μg/ml. Here is the method: as §2, §3
For test [8], the system named is S. aureus OCC 102. Nature of the test: growth on nutrient agar, mixed culture with E. faecalis (Example 7). It is filed as cell-based, Staphylococcus aureus. The following applies: S. aureus in mixed culture with E. faecalis. An excerpt: (§4) Example 6 was repeated, this time using a mixed culture of S. aureus OCC 102 and E. faecalis OCC 604, in the presence of AEP or alaphosphin. The empty columns represent growth of S. aureus, the shaded columns represent growth of E. faecalis. […] Thus alaphosphin could be used, when incorporated at an appropriate concentration in a medium, to inhibit growth of organisms such as Enterococci in samples whilst allowing Staphylococci to grow and be detected.

For a further test, the system named is E. faecalis OCC 604. Nature of the test: growth on nutrient agar, mixed culture with S. aureus (Example 7). It is filed as cell-based, Enterococcus faecalis. The following applies: E. faecalis in mixed culture with S. aureus.
From the text: as §4

≈ marks a conversion by molar mass, not a printed value.

The term MIC denotes the lowest concentration found to suppress growth. A high value points to a less susceptible organism.

Turning to `C[C@H](N)C(=O)N[C@@H](C)P(=O)(O)O` [alaphosphin, L-alanyl-L-1-aminoethylphosphonic acid], the MIC is above 50 µg/mL with Enterococcus faecium 220; 10 µg/mL (≈ 51 µM) in test [2]; 25 µg/mL (≈ 127 µM) with S. aureus (MRSA) 934; 5 µg/mL (≈ 25.5 µM) against S. aureus 198; 10 µg/mL (≈ 51 µM) in test [4]; 10 µg/mL (≈ 51 µM) against S. aureus ss aureus 2355. Moreover, the “concentration at which growth is inhibited” value with S. aureus OCC 102 [1] is listed as 10 mM; in the test on S. aureus OCC 102 [8], at least 10 mM. Besides, the “effect on growth of S. typhimurium” value in [3] is “no significant difference”. In addition, in the test on K. pneumoniae CMCC 3077, the “concentration at which growth is completely inhibited” value is given as at least 2 mM. Moreover, the “growth with Ala-AEP (1.5 μg/ml)” value (with Salmonella virchow 703; in test [5]; in the test on Salmonella arizonae 1200; in test [6]; with Citrobacter freundii 370; with Klebsiella aerogenes 323) was “Growth” each time. Moreover, the “growth with Ala-AEP (1.5 μg/ml)” value (in test [7]; in the test on Serratia marcescens 217) was “Growth” throughout. The “concentration causing complete inhibition” value with E. faecalis OCC 604 is recorded as at least 2 mM.
